Experimental findings from US20260234144A1 (TAY THERAPEUTICS LIMITED, priority 2023, published 2026) are described below.

This assay concerns R223X stop codon in the mutated luciferase gene, ADXC8 luciferase reporter cell line. Description: cells. It is filed as cell-based. Particulars: ADXC8 cells, 24 hours; for Emax / EC (100% of 200 uM G418 response): 24 h; for Emax: read-out: Fold Over Control, maximum fold response relative to 200 μM G418; for EC (100% of 200 uM G418 response): read-out: pC100%, negative logarithm of the concentration giving the same response as 200 μM G418; for pC100%: negative logarithm of the concentration giving the same response as 200 μM G418.

In the case of `COC(C)c1cnc2nc(NC3CCN(C)CC3)nc(N)c2c1` (stereo not shown) [Example 284], the Emax lay in the range of 0 to 100% and the EC (100% of 200 uM G418 response) is greater than 31.6 µM.
`Cc1cc(C)c2c(N)nc(N[C@@H]3CN4CCC3CC4)nc2n1` [Example 398]: the Emax lay in the range of 0 to 100% and the EC (100% of 200 uM G418 response) was greater than 31.6 µM.
On to `CNc1nc(NC2CCN(C)CC2)nc2ncccc12` [Example 39, N^4-methyl-N^2-(1-methylpiperidin-4-yl)pyrido[2,3-d]pyrimidine-2,4-diamine], for which the Emax lay in the range of 100 to 3000% and the EC (100% of 200 uM G418 response) was 10 to 100 µM.
As to `CN1CCC(Nc2nc(N)c3ccc(-c4ccc(C(F)(F)F)cc4)nc3n2)CC1` [Example 66], the Emax lay in the range of 0 to 100% and the EC (100% of 200 uM G418 response) is greater than 100 µM.
As to `CN1CCC(Nc2nc(N)c3ccc(C#N)nc3n2)CC1` [Example 282], the Emax lay within 0 to 100% and the EC (100% of 200 uM G418 response) is greater than 31.6 µM.
Regarding `Cc1cc(C)c2c(Nc3ccccc3)nc(NC3CCN(C)CC3)nc2n1` [Example 267], the Emax lay within 0 to 100% and the EC (100% of 200 uM G418 response) is greater than 31.6 µM.
Consider `CN1CCC(Nc2nc(N)c3ccc(OC4CCC4)nc3n2)CC1` [Example 33, 7-cyclobutoxy-N^2-(1-methylpiperidin-4-yl)pyrido[2,3-d]pyrimidine-2,4-diamine], for which the Emax was 100 to 3000% and the EC (100% of 200 uM G418 response) lay in the range of 10 to 100 µM.
`CNc1nc(N[C@H]2CN[C@@H](CO)C2)nc2nc(C)cc(C)c12` [Example 411]: the EC (100% of 200 uM G418 response) lay in the range of 1 to 10 µM.
In the case of `Cc1c2c(nc3nc(NC4CCN(Cc5ccc(C#N)cc5F)CC4)nc(N)c13)CCC2` [Example 649], the Emax was in the range of 100 to 3000% and the EC (100% of 200 uM G418 response) fell in the range of 1 to 10 µM.
On to `COCCNc1nc(NC2CCN(C)CC2)nc2nc(C)cc(C)c12` [Example 269], for which the Emax is 100 to 3000% and the EC (100% of 200 uM G418 response) was in the range of 1 to 10 µM.
On the same counts, the results for `Cc1cc(C)c2c(NCc3ccccn3)nc(NC3CCN(C)CC3)nc2n1` [Example 317] are 100 to 3000% and 10 to 100 µM.
Take `CC(O)c1ccc2c(N)nc(NC3CCN(C)CC3)nc2n1` (stereo not shown) [Example 288]: the Emax lay in the range of 100 to 3000% and the EC (100% of 200 uM G418 response) lay in the range of 10 to 100 µM.
Turning to `Cc1cc(C)c2c(N)nc(N[C@@H]3CCNC[C@@H]3F)nc2n1` [Example 586], the EC (100% of 200 uM G418 response) was in the range of 1 to 10 µM.
`CN1CCC(Nc2nc(N)c3cc(-c4ccn[nH]4)cnc3n2)CC1` [Example 646]: the Emax was in the range of 0 to 100% and the EC (100% of 200 uM G418 response) is greater than 100 µM.
`CNc1nc(N[C@@H]2CCN(C)C2)nc2nc(C)cc(OC)c12` [Example 631]: the Emax is 100 to 3000% and the EC (100% of 200 uM G418 response) was in the range of 1 to 10 µM.
In the case of `Cc1nc2nc(NC3CCN(C)CC3)nc(N)c2cc1-c1cnn(C)c1` [Example 677], the Emax lay in the range of 0 to 100% and the EC (100% of 200 uM G418 response) was greater than 100 µM.
With `Cc1cc(C)c2c(N)nc(NCCCN(C)C)nc2n1` [Example 154], the EC (100% of 200 uM G418 response) fell in the range of 1 to 10 µM.
With `CNc1nc(NCC23CCC[C@H]2N(C)CC3)nc2nc(C)cc(C)c12` (stereo partly shown) [Example 405], the Emax fell in the range of 100 to 3000% and the EC (100% of 200 uM G418 response) fell in the range of 1 to 10 µM.
Consider `CNc1nc(N[C@H]2CN(C3CC3)C[C@@H]2O)nc2nc(C)cc(C)c12` [Example 612], for which the Emax was in the range of 100 to 3000% and the EC (100% of 200 uM G418 response) was in the range of 10 to 100 µM.
In the case of `Cc1cc(C)c2c(N)nc(NCCN3Cc4ccccc4C3)nc2n1` [Example 37, N^2-(2-(isoindolin-2-yl)ethyl)-5,7-dimethylpyrido[2,3-d]pyrimidine-2,4-diamine], the EC (100% of 200 uM G418 response) is 10 to 100 µM.
For the compound `CN1CCC(Nc2nc(N)c3ccc(-c4ccccc4F)nc3n2)CC1` [Example 88], the EC (100% of 200 uM G418 response) fell in the range of 1 to 10 µM.
For the compound `COc1ccc(CNc2ccc3c(N)nc(NC4CCN(C)CC4)nc3n2)c(OC)c1` [Example 41, N^7-(2,4-dimethoxybenzyl)-N2-(1-methylpiperidin-4-yl)pyrido[2,3-d]pyrimidine-2,4,7-triamine], the Emax was 0 to 100% and the EC (100% of 200 uM G418 response) is greater than 100 µM.
Taken in the same sequence, the figures for `Cc1cc(C)c2c(NCCN(C)C)nc(NC3CCN(C)CC3)nc2n1` [Example 270] were 100 to 3000% and 1 to 10 µM.
Taken in the same sequence, the figures for `CN1CCC(Nc2nc(N)c3ccc(-c4ccccc4C(F)(F)F)nc3n2)CC1` [Example 90] were 100 to 3000% and 10 to 100 µM.
On the same counts, the results for `COc1cc(C)nc2nc(N[C@@H]3CCN(C)C3)nc(N)c12` [Example 525, (R)-5-methoxy-7-methyl-N^2-(1-methylpyrrolidin-3-yl)pyrido[2,3-d]pyrimidine-2,4-diamine] are 100 to 3000% and 10 to 100 µM.
Regarding `Cc1ccnc2nc(NC3CCN(C)CC3)nc(N)c12` [Example 2, 5-methyl-N^2-(1-methylpiperidin-4-yl)pyrido[2,3-d]pyrimidine-2,4-diamine], the Emax was 100 to 3000% and the EC (100% of 200 uM G418 response) was in the range of 10 to 100 µM.
Consider `COC(C)c1ccc2c(N)nc(NC3CCN(C)CC3)nc2n1` (stereo not shown) [Example 290], for which the Emax was 100 to 3000% and the EC (100% of 200 uM G418 response) fell in the range of 10 to 100 µM.
For `CNc1nc(N[C@H]2CN(C)C[C@H]2F)nc2nc(C)cc(C)c12` [Example 340], the Emax was in the range of 100 to 3000% and the EC (100% of 200 uM G418 response) is 1 to 10 µM.
Consider `CNc1nc(N[C@@H]2CCN(C)C2)nc2nc(C)c3c(c12)CCC3` [Example 337], for which the EC (100% of 200 uM G418 response) was in the range of 0.1 to 1 µM.
`Cc1cc(C)c2c(N)nc(N[C@@H]3CCN(Cc4ccc(C#N)cc4)C[C@H]3O)nc2n1` [Example 558]: the Emax lay within 100 to 3000% and the EC (100% of 200 uM G418 response) was 1 to 10 µM.
Consider `CNc1nc(NC2CC3CC2CN3C)nc2nc(C)cc(C)c12` (single isomer, unassigned) [Example 431], for which the Emax was in the range of 100 to 3000% and the pC100% result is “+ (pC100% > 4.0 ≤ 5.0)”.
Take `Cc1cc(C)c2c(N)nc(NC3CCN(Cc4cc[nH]n4)CC3)nc2n1` [Example 469]: the Emax fell in the range of 100 to 3000% and the EC (100% of 200 uM G418 response) was 10 to 100 µM.
`Cc1ccccc1-c1ccc2c(N)nc(NC3CCN(C)CC3)nc2n1` [Example 110]: the EC (100% of 200 uM G418 response) fell in the range of 1 to 10 µM.
For the compound `Cc1nc2nc(NC34CCN(CC3)CC4)nc(N)c2c2c1CCC2` [Example 272], the Emax lay in the range of 100 to 3000% and the EC (100% of 200 uM G418 response) lay within 0.1 to 1 µM.
As to `Cc1cc(C)c2c(N)nc(NCCN(C)C)nc2n1` [Example 142, N^2-(2-(dimethylamino)ethyl)-5,7-dimethylpyrido[2,3-d]pyrimidine-2,4-diamine], the EC (100% of 200 uM G418 response) lay in the range of 1 to 10 µM.
Regarding `COc1ccc(-c2ccc3c(N)nc(NC4CCN(C)CC4)nc3n2)cc1` [Example 24, 7-(4-methoxyphenyl)-N^2-(1-methylpiperidin-4-yl)pyrido[2,3-d]pyrimidine-2,4-diamine], the EC (100% of 200 uM G418 response) was 1 to 10 µM.
Turning to `Cc1cc(C)c2c(N)nc(NC3CCN(Cc4ccns4)CC3)nc2n1` [Example 467], the Emax was 100 to 3000% and the EC (100% of 200 uM G418 response) was in the range of 1 to 10 µM.
For `CNc1cc(N[C@H]2CNC[C@@H]2O)nc2nc3c(c(C)c12)CCC3` [Example 635], the EC (100% of 200 uM G418 response) lay within 1 to 10 µM.
Turning to `CNc1cc(N[C@H]2CNC[C@H]2F)nc2nc3c(c(C)c12)CCC3` [Example 633], the EC (100% of 200 uM G418 response) was 1 to 10 µM.
As for `Cc1cc(C)c2c(N)nc(NC3CCN(Cc4cccc5nc[nH]c45)CC3)nc2n1` [Example 660], the Emax was 100 to 3000% and the EC (100% of 200 uM G418 response) was 1 to 10 µM.
Regarding `CN1CCC(Nc2nc(N)c3cc(-c4ccn(C)n4)cnc3n2)CC1` [Example 648], the Emax lay in the range of 0 to 100% and the EC (100% of 200 uM G418 response) is greater than 100 µM.
As for `Cc1c2c(nc3nc(NC4CCN(Cc5cn[nH]c5)CC4)nc(N)c13)CCC2` [Example 661], the Emax lay within 100 to 3000% and the EC (100% of 200 uM G418 response) lay in the range of 1 to 10 µM.
On to `COC(=O)c1ccc2c(N)nc(NC3CCN(C)CC3)nc2n1` [Example 235, methyl 4-amino-2-((1-methylpiperidin-4-yl)amino)pyrido[2,3-d]pyrimidine-7-carboxylate], for which the Emax lay within 0 to 100% and the EC (100% of 200 uM G418 response) is greater than 100 µM.
In the case of `CNc1nc(NC2CNCC2C(F)F)nc2nc(C)cc(C)c12` (single isomer, unassigned) [Example 430], the pC100% result was “++ (pC100% > 5.0 ≤ 6.0)”.
Turning to `Cc1cc(C)c2c(N)nc(NC3CCN(Cc4ccc(C(N)=O)cc4)CC3)nc2n1` [Example 476], the Emax was in the range of 100 to 3000% and the EC (100% of 200 uM G418 response) was 10 to 100 µM.
Consider `CN1CCC(Nc2nc(N)c3ccc(-c4cnn(C)c4)nc3n2)CC1` [Example 26, 7-(1-methyl-1H-pyrazol-4-yl)-N^2-(1-methylpiperidin-4-yl)pyrido[2,3-d]pyrimidine-2,4-diamine], for which the Emax was 0 to 100% and the EC (100% of 200 uM G418 response) is greater than 100 µM.
On the same counts, the results for `Cc1c2c(nc3nc(N[C@@H]4CCCNC4)nc(N)c13)CCC2` [Example 581] are 100 to 3000% and 0.01 to 0.1 µM.
For the compound `Cc1cc(C)c2c(N)nc(NC3CCN(Cc4cccc(F)c4O)CC3)nc2n1` [Example 566], the Emax was 100 to 3000% and the EC (100% of 200 uM G418 response) fell in the range of 0.1 to 1 µM.
`CNc1nc(NC2CCN3CCCC3C2)nc2nc(C)cc(C)c12` (single isomer, unassigned) [Example 442]: the EC (100% of 200 uM G418 response) was in the range of 1 to 10 µM.
Turning to `Cc1cc(C)c2c(N)nc(NC3(CN(C)C)CC3)nc2n1` [Example 219, N^2-(1-((dimethylamino)methyl)cyclopropyl)-5,7-dimethylpyrido[2,3-d]pyrimidine-2,4-diamine], the Emax lay in the range of 0 to 100% and the EC (100% of 200 uM G418 response) was greater than 31.6 µM.
Consider `Cc1cc(C)c2c(N)nc(NC3CC34CCNCC4)nc2n1` (stereo not shown) [Example 640], for which the Emax lay within 0 to 100% and the EC (100% of 200 uM G418 response) is greater than 31.6 µM.
With `CNc1nc(N[C@H]2CN(C)C[C@H]2O)nc2nc(C)cc(C)c12` [Example 359], the Emax lay within 100 to 3000% and the EC (100% of 200 uM G418 response) was 10 to 100 µM.
